Test results as given in US8889631B2, “Disruptors of early/recycling endosomes” (The University of Kansas, priority 2008, dated 2014).
Entries after “also recorded” stand apart in the source; their conditions may differ. Square brackets hold non-standard residues; d marks the D form. Peptide text beside a SMILES is read from it. * marks the point of attachment. Pentanoyl(5-NH-cholesteryl) = CC(C)CCC[C@@H](C)[C@H]1CC[C@H]2[C@@H]3CC=C4C[C@@H](NCCCCC(=O)*)CC[C@]4(C)[C@H]3CC[C@]12C; X1 = O=C(O)c1c(Cl)cc(C(=O)*)c(Cl)c1-c1c2cc(Cl)c(=O)c(Cl)c-2oc2c(Cl)c(O)c(Cl)cc12; Ahx = NCCCCCC(=O)O

What was measured:
[1] = tested on: CHO cells; assay: Dose dependence of endosomal escape quantified by flow cytometry, CHO cells; type: cell-based, Chinese hamster; conditions: Compound 3 (5 μM) with increased amounts of Compound 1, or Compound 5 at 8 micromolar, 24 h, 37° C.
Method: (§1) Cellular fluorescence was analyzed by flow cytometry.
(§2) Analyses were performed with a Beckman-Coulter XL-MCL bench-top flow cytometer. Forward-scatter (FS) and side-scatter (SSC) dot plots afforded cellular physical properties of size and granularity that allowed gating of live cells. After gating, 10,000 cells were counted. In studies of endosomal release of fluorescein derivative Compound 6 mediated by Compound 1, the fluorophore was excited at 488 nm with a 15 mW air-cooled argon-ion laser, the emission was split with a 550 nm dichroic and filtered through a 510 nm long pass filter and 530/30-nm band pass filter using the XL-MCL cytometer. The PMT voltage for this instrument was set to 501 for Jurkat cells and 524 for CHO cells.

[2] = tested on: CHO cells; assay: Release of fluorescent cargo from early/recycling endosomes, confocal microscopy, CHO cells; type: cell-based, Chinese hamster; conditions: for release of green fluorescence of Compound 3 from early/recycling endosomes by the endosome disruptor: Compound 3 (5 μM) and Compounds 1, 2, or 5 (8 μM) for 24 h; for release of the fluorophore of the cargo compound when combined with Compound 1 or Compound 2: Compound 3 or Compound 4 (5 μM), disruptor 8 μM, 24 h
Method: (§3) FIG. 4A-4J show confocal fluorescence and DIC micrographs of living cells treated with fluorescent probes. FIGS. 4A-4F show CHO cells were treated with Compound 3 or Compound 4 (5 μM) and Compounds 1, 2, or 5 (8 μM) for 24 h. In FIG. 4F, [chloroquine]=5 μM. In FIGS. 4G-4J, Jurkat lymphocytes were treated with Compound 3 or Compound 4 (2.5 μM) and Compound 1 or Compound 5 (2 μM) for 12 h.
(§4) A Zeiss LSM 5 Pascal confocal laser-scanning microscope fitted with a Plan Apochromat objective (63×) was employed. Fluorescein and Alexa Fluor-488 were excited with a 488 nm Argon ion laser (25 mW, 1% laser power) and emitted photons were collected through 505 nm LP filter. Excitation of 6-Hex, Texas Red, and DiI employed a 543 nm HeNe laser and emitted photons were collected through a 560 nm LP filter.

[3] = tested on: Jurkat lymphocytes; assay: Dose dependence of endosomal escape quantified by flow cytometry, Jurkat lymphocytes; type: cell-based, human; conditions: Compound 3 (2.5 μM) with increased amounts of Compound 1, or Compound 5 at 8 micromolar, 12 h, 37° C.
Method: as §1, §2

[4] = tested on: Jurkat lymphocytes; assay: Release of fluorescent cargo from early/recycling endosomes, confocal microscopy, Jurkat lymphocytes; type: cell-based, human; conditions: for release of green fluorescence of Compound 3 from early/recycling endosomes by the endosome disruptor: Compound 3 (2.5 μM) and disruptor (2 μM) for 12 h; for release of the fluorophore of the cargo compound when combined with Compound 1: Compound 3 or Compound 4 (2.5 μM), Compound 1 (2 μM), 12 h
Method: as §3
Jurkat cells were treated with green fluorescent Compound 3 (2.5 μM) and red fluorescent Compound 2 (2 μM) for 12 h at 37° C. In FIG. 9B, bafilomycin A1 (1 μM), a vacuolar H^+ ATPase inhibitor that blocks acidification of endosomes, was added. FIG. 9A is without bafilomyin. Cells were washed with media and imaged by DIC and confocal laser scanning microscopy.
as §4

[5] = tested on: CHO cells; assay: Inhibiting endosome acidification, CHO cells (chloroquine); type: cell-based, Chinese hamster; conditions: chloroquine 5 μM, Compound 3 (5 μM) and Compound 2 (8 μM), 24 h
Method: Exponentially growing CHO cells were cultivated on round collagen-coated coverslips (22 mm, BD BioCoat) in a six-well plate (1.2×10^5 cells/well, 2 mL). After 24 h, the media was replaced with fresh media containing chloroquine (final concentration=5 μM) in DMSO (final [DMSO]=1%) and cells were incubated at 37° C. for 1 h. The media was replaced with fresh media containing Compound 3 (5 μM) and Compound 2 (concentration=8 μM) in DMSO (final [DMSO]=1%) with or without chloroquine […] (final concentration=5 μM) in DMSO (final [DMSO]=1%). The cells were incubated at 37° C. for 24 h. The cells were washed with PBS (2×2 mL) prior to analysis by confocal microscopy.

[6] = tested on: Jurkat lymphocytes; assay: Inhibiting endosome acidification, Jurkat cells (bafilomycin A1); type: cell-based, human; conditions: bafilomycin A1 1 μM, Compound 3 (2.5 μM) and Compound 2 (2 μM), 12 h, 37° C.
Method: Jurkat lymphocytes (5×10^5) in media (500 μL) were pretreated with bafilomycin A1 (final concentration=1 μM) in DMSO (final [DMSO]=2%) for 1 h. […] After incubation at 37° C. for 12 h, the cells were washed with fresh media (500 μL) and resuspended in fresh media (125 μL) for analysis by confocal microscopy.

## Ac-SSAWWSYWPPVA-NH2 [Compound 5, N-Acetyl-L-seryl-L-seryl-L-alanyl-L-tryptophyl-L-tryptophyl-L-seryl-L-tyrosyl-L-tryptophyl-L-prolyl-L-prolyl-L-valyl-L-alaninamide, reference compound]
[1]
  cellular fluorescence (endosomal escape) by flow cytometry: did not increase fluorescence
[2]
  release of green fluorescence of Compound 3 from early/recycling endosomes by the endosome disruptor: little effect
[3]
  cellular fluorescence (endosomal escape) by flow cytometry: did not increase fluorescence
[4]
  release of green fluorescence of Compound 3 from early/recycling endosomes by the endosome disruptor: little effect

## CC(C)CCC[C@@H](C)[C@H]1CC[C@H]2[C@@H]3CC=C4C[C@@H](NCCCNC(=O)[C@H](CCC(=O)O)NC(=O)[C@H](CCC(=O)O)NC(=O)CCNC(=O)CCNC(=O)c5ccc(-c6c7ccc(=O)cc-7oc7cc(O)ccc67)c(C(=O)O)c5)CC[C@]4(C)[C@H]3CC[C@]12C [Compound 4, (11S,14S)-11-(2-Carboxylatoethyl)-1-[3-carboxylato-4-(6-oxido-3-oxo-3H-xanthen-9-yl)phenyl]-14-[({3-(3β-cholest-5-en-3-ylammonio)propyl}amino)carbonyl]-1,5,9,12-tetraoxo-2,6,10,13-tetraazaheptadecan-17-oate]
[2]
  release of the fluorophore of the cargo compound when combined with Compound 1 or Compound 2: blocked release of the fluorophore
[4]
  release of the fluorophore of the cargo compound when combined with Compound 1: blocked release of the fluorophore

## CCN(CC)CCCC(C)Nc1ccnc2cc(Cl)ccc12 (stereo not drawn) [chloroquine]
[5]
  effect of raising endosomal pH on release of the fluorophore: blocked release of the fluorophore

## CC(C)CCC[C@@H](C)[C@H]1CC[C@H]2[C@@H]3CC=C4C[C@@H](NCCCNC(=O)[C@H](CCC(=O)O)NC(=O)[C@H](CCC(=O)O)NC(=O)CCSSCCNC(=O)c5ccc(-c6c7ccc(=O)cc-7oc7cc(O)ccc67)c(C(=O)O)c5)CC[C@]4(C)[C@H]3CC[C@]12C [Compound 3, (11S,14S)-11-(2-Carboxylatoethyl)-1-[3-carboxylato-4-(6-oxido-3-oxo-3H-xanthen-9-yl)phenyl]-14-[({3-(3β-cholest-5-en-3-ylammonio)propyl}amino)carbonyl]-1,9,12-trioxo-5,6-dithia-2,10,13-triazaheptadecan-17-oate]
[2]
  release of the fluorophore of the cargo compound when combined with Compound 1 or Compound 2: released from entrapment in early/recycling endosomes
[4]
  release of the fluorophore of the cargo compound when combined with Compound 1: released from entrapment in early/recycling endosomes

## CC(C)CCC[C@@H](C)[C@H]1CC[C@H]2[C@@H]3CC=C4C[C@@H](NCCCCC(=O)N[C@@H](CCC(=O)O)C(=O)N[C@@H](CCCCNC(=O)c5cc(Cl)c(C(=O)O)c(-c6c7cc(Cl)c(=O)c(Cl)c-7oc7c(Cl)c(O)c(Cl)cc67)c5Cl)C(=O)NCCCCCC(=O)NCCCCCC(=O)N[C@@H](CO)C(=O)N[C@@H](CO)C(=O)N[C@@H](C)C(=O)N[C@@H](Cc5c[nH]c6ccccc56)C(=O)N[C@@H](Cc5c[nH]c6ccccc56)C(=O)N[C@@H](CO)C(=O)N[C@@H](Cc5ccc(O)cc5)C(=O)N[C@@H](Cc5c[nH]c6ccccc56)C(=O)N5CCC[C@H]5C(=O)N5CCC[C@H]5C(=O)N[C@H](C(=O)N[C@@H](C)C(N)=O)C(C)C)CC[C@]4(C)[C@H]3CC[C@]12C [Compound 2, N-(6-{[6-({N-{5-(3β-Cholest-5-en-3-ylammonio)pentanoyl}-5-oxidanidyl-5-oxidanylidene-L-norvalyl-N^6-[4-carboxy-2,5-dichloro-3-(2,4,5,7-tetrachloro-6-hydroxy-3-oxo-3H-xanthen-9-yl)benzoyl]-L-lysyl}amino)hexanoyl]amino}hexanoyl)-L-seryl-L-seryl-L-alanyl-L-tryptophyl-L-tryptophyl-L-seryl-L-tyrosyl-L-tryptophyl-L-prolyl-L-prolyl-L-valyl-L-alaninamide] ({Pentanoyl(5-NH-cholesteryl)}-EK(X1)[Ahx][Ahx]SSAWWSYWPPVA-NH2)
[2]
  release of green fluorescence of Compound 3 from early/recycling endosomes by the endosome disruptor: fluorescence was observed in the cytosol and nucleus
[4]
  release of green fluorescence of Compound 3 from early/recycling endosomes by the endosome disruptor: endosomal escape

## CO/C1=C\C(C)=C\[C@@H](C)[C@@H](O)[C@@H](C)C/C(C)=C/C=C/[C@H](OC)[C@@H]([C@@H](C)[C@@H](O)[C@H](C)[C@@]2(O)C[C@@H](O)[C@H](C)[C@@H](C(C)C)O2)OC1=O [bafilomycin A1]
[6]
  effect of raising endosomal pH on release of the fluorophore (endosomal escape): blocked release of the fluorophore; also recorded: retention in endosomes
